Source: paper PMC9589054, “One-step synthesized antimicrobial peptide-functionalized gold nanoclusters for selective imaging and killing of pathogenic bacteria” (Frontiers in Microbiology, 2022)
Ends that are not written are not given here.

Assays:
Experiment in all cases: Plate bactericidal experiment (colony counting)
Format in all cases: cell-based
Settings in all cases: 22-712 μg/ml tested
[1] = system: Escherichia coli (E. coli) ATCC 25922
Protocol: (§1) The Escherichia coli (E. coli) ATCC 25922, Staphylococcus aureus (S. aureus) ATCC 25923, and Acinetobacter baumannii (A. baumannii) ATCC 19606 used in our experiments were preserved in our laboratory. Bacteria were cultured in LB liquid medium at 37°C for 8–12 h. Then, the cultures were centrifuged at 4,000 rpm for 5 min and washed three times with PBS. Eventually, the bacterial solutions were diluted to different concentrations for testing (10–1.00 × 10^9 cfu/ml). First, 100 μl of CWR11-AuNC solution was added to an E. coli or S. aureus suspension (1 × 10^5 cfu/ml). After 1 h of incubation, 10 μl of bacterial suspension was inoculated on an LB solid agar plate and placed at 37°C for 24 h before the number of colonies was counted. In addition, different concentrations of CWR11-AuNCs were added to the bacterial suspensions (McFarland turbidity of 0.5) and placed at 37°C for 18–24 h. Bacterial viability was determined by measuring the absorbance at 600 nm.

[2] = system: Staphylococcus aureus (S. aureus) ATCC 25923
Protocol: as §1

[3] = system: Acinetobacter baumannii (A. baumannii) ATCC 19606

CWFWKWWRRRRR [CWR11]
significantly reduced the activity: effect on activity of E. coli [1] | effect on activity of S. aureus [2] | effect on activity of A. baumannii [3]
